Reference: publication PMC12040169 (PLOS Biology, 2025)

Experiment: in vitro
Settings: human, hela cells, % viability

Structure (SMILES) | viability at 28.5 h, 10 µM | viability at 28.5 h, 10 µM (bulk resorufin, single well)
CCCn1c(SCC(=O)N2CCOCC2)nc2cc(Cl)ccc2c1=O [CBK306482] | 97.6% | 
CCC(CCC(=O)Nc1ccccc1Cl)C(=O)O (stereo not shown) [CBK286767] | 86.8% | 
COc1ccc(C(=O)c2c(N)c(C(=O)Nc3ccccc3)c3ccccn23)cc1 [CBK300509] | 92.6% | 
C[C@@H]1CN(Cc2ccco2)[C@H](C)CN1CC(=O)Nc1nc2c(s1)CCCC2 [CBK286530] | 100% | 
Fc1ccc(CCNC(=S)NC2CCCC2)cc1 [CBK266175] | 99.9% | 
Cc1[nH]c2ccccc2c1[C@H]1CC[C@@H](NC(=O)c2ccnn2C)C1 [CBK284761] | 99.8% | 
Cc1ccc2cc(CN(Cc3ccc(N(C)C)cc3)C(=O)NC3CCCCC3)c(=O)[nH]c2c1C [CBK132070] | 97.3% | 
COc1c(Cl)cc(Cl)cc1CNC(C)(C)CO [CBK270212C] | 102% | 
Cc1nn(C)c(C)c1NC(=O)COc1ccc(C#N)cc1 [CBK306011] | 87.5% | 
O=C(Nc1ccccc1-n1ccnc1)c1ncoc1-c1ccc(F)cc1 [CBK282417] | 94.1% | 
CC(C)C(NC(=O)C(C)(C)Oc1ccc(Cl)cc1)C(=O)O (stereo not shown) [CBK266138] | 94.5% | 
OCCN1CCN(c2nc(-c3cccnc3)cn3ccnc23)CC1 [CBK037887] | 99.3% | 
O=c1c2[nH]c3ccccc3c2ncn1Cc1ccccc1 [CBK287809] | 103% | 
COc1ccc(SCC(=O)Nc2nccs2)cc1 [CBK287751] | 83.4% | 
COC(=O)c1c(NC(=O)COc2ccccc2Cl)sc2c1CCC(c1ccccc1)C2 (stereo not shown) [CBK265456] | 90.3% | 
O=C1NCC2(C/C=C/CCOc3ccccc31)CCN(C(=O)Cc1cccc(F)c1)CC2 [CBK292015] | 81% | 
CC(=O)N(C)c1nc(-c2ccccc2)ccc1C(=O)Nc1ccc2c(c1)OCO2 [CBK106342] | 96.8% | 
O=C(O)COc1ccc(NC(=O)c2ccc3c(c2)C(=O)N(C2CCCCC2)C3=O)cc1 [CBK266009] | 92.1% | 
COc1ccc(CCc2nc(C)cc(CN(C)C)c2O)cc1OC [CBK278320C] | 89% | 
CC(C)N1CCCC(CNC(=O)c2cc(C3CCCCC3)no2)C1 (stereo not shown) [CBK283294] | 97.2% | 
O=C(NCCCn1ccnc1)c1ncoc1-c1ccccc1 [CBK283887] | 99% | 
COc1ccc(OC(=O)Cc2ccccc2)cc1 [CBK131826] |  | 117%

Structure (SMILES) | viability at 28.5 h, 10 µM | viability at 28.5 h, 10 µM (bulk resorufin, single well)
CC(NC(=O)C1CC(=O)N(c2cccc(F)c2)C1)C1CC2CCC1C2 (stereo not shown) [CBK281664] | 99.9% | 
COc1ccc(CC(=O)NC2CC(C)(C)Cc3c2cnn3C)cc1 (stereo not shown) [CBK282886] | 99% | 
O=C(NCc1ccccc1)N1CCC(n2cnc3cccnc32)CC1 [CBK282281] | 100% | 
CCNC(=O)N[C@H]1CO[C@H]2[C@@H]1OC[C@@H]2Nc1nccc(-c2ccc(OC)cc2)n1 [CBK289528] | 89.3% | 
O=c1[nH]cc([C@@H]2O[C@H](CO)[C@H](O)C2O)c(=O)[nH]1 (stereo partly shown) [CBK201172] | 103% | 
Cc1cc2c(cc1C)C(O)CC1(CCN(C(=O)C3CCCC3)CC1)O2 (stereo not shown) [CBK282743] | 81.5% | 
O=C(NC[C@H]1O[C@@H](CC(=O)N2CCc3ccccc32)[C@H](O)[C@@H]1O)C1CC1 [CBK288915] | 105% | 
O=C(O)COc1ccc(-c2nnn(CC(=O)O)n2)cc1 [CBK267124] | 87.6% | 
COc1ccc(-n2nc3cc(C)c(NC(=S)NC(=O)c4oc5ccccc5c4C)cc3n2)cc1 [CBK264188] | 103% | 
CCN(CC)CCN/C=C1/C(=O)NC(=O)N(Cc2ccccc2)C1=O [CBK261624] |  | 88.9%
COc1cccc(-c2cncc(C3CCN(C(=O)CCOc4ccccc4)CC3)n2)c1 [CBK286153] | 88.9% | 
Fc1ccc2[nH]c3c(c2c1)CCN1C(c2ccccn2)N2CCC31CC2 (stereo not shown) [CBK284431] | 101% | 
Cc1nc(S(=O)(=O)N2CCOC3(CCCC3)C2)cn1C [CBK304834] | 109% | 
CC1CN(CCOc2ccccc2C=O)CC(C)O1 (stereo not shown) [CBK269687C] | 101% | 
CC(C)Cn1cnc(S(=O)(=O)N2CCC(OCc3ccncc3)C2)c1 (stereo not shown) [CBK305456] | 105% | 
Oc1ccc2nc(N[C@H]3CC4CCC3C4)sc2c1Cl (stereo partly shown) [CBK024348G] | 62.1% | 
Cc1ccc(C)c(-n2nnnc2SCC(=O)c2ccc(Cl)cc2Cl)c1 [CBK141941] | 98.1% | 
O=C1OC[C@@H](c2ccccc2)N1C(=O)[C@@H]1CN(Cc2ccccc2)C[C@H]1c1cc2ccccc2o1 [CBK022599C] | 111% | 
CN(C)CCCN(Cc1ccc2ncccc2c1)Cc1ccco1 [CBK283197] | 112% | 
CC(C)(CN1CCCC1)CN1CCC(O)(c2ccccc2F)CC1 [CBK282798] | 93.4% | 
COC(=O)c1c(NC(=O)COc2ccccc2C(C)C)sc2c1CCCC2 [CBK266722] | 93.5% | 
c1ccc(Nc2ccccc2Nc2ccccn2)nc1 [CBK261806] | 93.5% | 

Structure (SMILES) | viability at 28.5 h, 10 µM | viability at 28.5 h, 10 µM (bulk resorufin, single well)
CCCn1ccnc1SCC(=O)Nc1ccc(CN2CCOCC2)cc1 [CBK306068] | 87.8% | 
Cc1cc(C)c2oc(-c3ccc(Cl)c(NC(=O)Cc4ccc(Cl)cc4)c3)nc2c1 [CBK264695] | 97.8% | 
CC(=O)NCCn1cc2c(n1)[C@H]1CN(C(=O)c3ccccc3)C[C@H]1C2 [CBK282073] | 111% | 
Cc1ccc(S(=O)(=O)NC2c3cccc4cccc(c34)C2Sc2ccccn2)cc1 (stereo not shown) [CBK265840] | 91.6% | 
O=C(O)C(=N\Nc1ccccc1)/C(=N/Nc1ccccc1)C(=O)O [CBK278303N] | 100% | 
CN1CCC(N(C)C(=O)NCCOc2ccccc2)C1 (stereo not shown) [CBK156018] | 107% | 
CC(NC(=O)Cc1cccc(F)c1)c1nc2cccnc2n1C(C)C (stereo not shown) [CBK283831] | 98.5% | 
CCNC(=O)N1C(CC(=O)Nc2cccc(OC)c2)C(=O)NC2CCCCC21 (stereo not shown) [CBK269848] | 90.6% | 
O=S(=O)(NCCc1ccccc1)c1cccc2nsnc12 [CBK261128] | 103% | 
O=C(O)c1ccc2c(c1)C(=O)N(C1=NCCS1)C2=O [CBK021809] | 89.6% | 
C/C(=N\Nc1nc(-c2ccccc2)cs1)c1ccccc1 [CBK262104] | 88.8% | 
CC1(C)CC(=O)c2cc(C(N)=O)c(=O)n(-c3ccc(Cl)cc3)c2C1 [CBK293936] | 88.8% | 
CN(C)c1ccc(Nc2cc(-c3ccc(OCc4ccccc4)cc3)ncn2)cc1 [CBK090941] | 113% | 
CC1CCCN(CC(=O)NCc2ccc(OCC(N)=O)cc2)CC1 (stereo not shown) [CBK305755] | 92.1% | 
Cc1ccc(C2(C(=O)NCCCn3ccnc3C)CCOCC2)cc1 [CBK281588] | 91.6% | 
Nc1ccc2ccc(Cl)nc2n1 [CBK039198] | 113% | 
COc1cccc(N2C(=O)CC(N3CCN(Cc4ccc5c(c4)OCO5)CC3)C2=O)c1 (stereo not shown) [CBK074411] | 93.1% | 
NC(=O)Cn1cc(C(=O)c2ccncc2)c(=O)c2cc(Cl)ccc21 [CBK288584] | 86% | 
CC(C)c1csc(NC(=O)CC2CCN(C(=O)CC3CCCCC3)CC2)n1 [CBK285963] | 82.3% | 
COc1ccc(/C=N/Nc2ccc([N+](=O)[O-])cc2)c(C(=O)O)c1OC [CBK261984] | 90.5% | 
